Legend:
Assay in all cases: SelectScreen kinase assay
Type in all cases: biochemical
Axl_h = target: T1, Axl_h (Homo sapiens, UniProt P30530); settings: KM ATP, read-out: % control
T1 construct: purchased Life Technologies (Invitrogen) SelectScreen, Z'-LYTE / Adapta
Summary of the method: (§1)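 With compound constant at 3 µM, kinase activity was determined by Z'-Lyte or Adapta at KM ATP or at 10 or 100 µM ATP. Uninhibited DMSO-only wells defined 100% control.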

BTK_h = target: T2, BTK_h (Homo sapiens, UniProt Q06187); settings: KM ATP, read-out: % control
T2 construct: purchased Life Technologies (Invitrogen) SelectScreen, Z'-LYTE / Adapta
Summary of the method: as §1

CK1-delta_h = target: T3, CK1-delta_h (Homo sapiens, UniProt P48730); settings: KM ATP, read-out: % control
T3 construct: purchased Life Technologies (Invitrogen) SelectScreen, Z'-LYTE / Adapta
T3 sequence (P48730 whole entry): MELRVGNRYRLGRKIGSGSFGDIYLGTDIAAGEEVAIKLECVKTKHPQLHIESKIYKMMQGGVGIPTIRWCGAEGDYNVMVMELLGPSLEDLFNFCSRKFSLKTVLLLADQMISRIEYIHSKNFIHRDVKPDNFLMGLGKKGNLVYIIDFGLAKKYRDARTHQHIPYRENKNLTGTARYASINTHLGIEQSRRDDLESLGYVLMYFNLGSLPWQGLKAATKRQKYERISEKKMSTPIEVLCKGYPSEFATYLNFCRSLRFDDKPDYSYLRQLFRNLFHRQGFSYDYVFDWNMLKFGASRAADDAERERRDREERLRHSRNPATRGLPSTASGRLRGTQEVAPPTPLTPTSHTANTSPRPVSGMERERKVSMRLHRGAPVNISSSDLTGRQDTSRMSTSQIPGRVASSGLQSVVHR
Summary of the method: as §1

CaMKI-delta_h = target: T4, CaMKI-delta_h (Homo sapiens, UniProt Q8IU85); settings: KM ATP, read-out: % control
T4 construct: purchased Life Technologies (Invitrogen) SelectScreen, Z'-LYTE / Adapta
Summary of the method: as §1

CaMKIV_h = target: T5, CaMKIV_h (Homo sapiens, UniProt Q16566); settings: KM ATP, read-out: % control
T5 construct: purchased Life Technologies (Invitrogen) SelectScreen, Z'-LYTE / Adapta
Summary of the method: as §1

DYR1A_h = target: T6, DYR1A_h (Homo sapiens, UniProt Q13627); settings: KM ATP, read-out: % control
T6 construct: purchased Life Technologies (Invitrogen) SelectScreen, Z'-LYTE / Adapta
Summary of the method: as §1

HIPK1_h = target: T7, HIPK1_h (Homo sapiens, UniProt Q86Z02); settings: KM ATP, read-out: % control
T7 construct: purchased Life Technologies (Invitrogen) SelectScreen, Z'-LYTE / Adapta
T7 sequence (Q86Z02 whole entry): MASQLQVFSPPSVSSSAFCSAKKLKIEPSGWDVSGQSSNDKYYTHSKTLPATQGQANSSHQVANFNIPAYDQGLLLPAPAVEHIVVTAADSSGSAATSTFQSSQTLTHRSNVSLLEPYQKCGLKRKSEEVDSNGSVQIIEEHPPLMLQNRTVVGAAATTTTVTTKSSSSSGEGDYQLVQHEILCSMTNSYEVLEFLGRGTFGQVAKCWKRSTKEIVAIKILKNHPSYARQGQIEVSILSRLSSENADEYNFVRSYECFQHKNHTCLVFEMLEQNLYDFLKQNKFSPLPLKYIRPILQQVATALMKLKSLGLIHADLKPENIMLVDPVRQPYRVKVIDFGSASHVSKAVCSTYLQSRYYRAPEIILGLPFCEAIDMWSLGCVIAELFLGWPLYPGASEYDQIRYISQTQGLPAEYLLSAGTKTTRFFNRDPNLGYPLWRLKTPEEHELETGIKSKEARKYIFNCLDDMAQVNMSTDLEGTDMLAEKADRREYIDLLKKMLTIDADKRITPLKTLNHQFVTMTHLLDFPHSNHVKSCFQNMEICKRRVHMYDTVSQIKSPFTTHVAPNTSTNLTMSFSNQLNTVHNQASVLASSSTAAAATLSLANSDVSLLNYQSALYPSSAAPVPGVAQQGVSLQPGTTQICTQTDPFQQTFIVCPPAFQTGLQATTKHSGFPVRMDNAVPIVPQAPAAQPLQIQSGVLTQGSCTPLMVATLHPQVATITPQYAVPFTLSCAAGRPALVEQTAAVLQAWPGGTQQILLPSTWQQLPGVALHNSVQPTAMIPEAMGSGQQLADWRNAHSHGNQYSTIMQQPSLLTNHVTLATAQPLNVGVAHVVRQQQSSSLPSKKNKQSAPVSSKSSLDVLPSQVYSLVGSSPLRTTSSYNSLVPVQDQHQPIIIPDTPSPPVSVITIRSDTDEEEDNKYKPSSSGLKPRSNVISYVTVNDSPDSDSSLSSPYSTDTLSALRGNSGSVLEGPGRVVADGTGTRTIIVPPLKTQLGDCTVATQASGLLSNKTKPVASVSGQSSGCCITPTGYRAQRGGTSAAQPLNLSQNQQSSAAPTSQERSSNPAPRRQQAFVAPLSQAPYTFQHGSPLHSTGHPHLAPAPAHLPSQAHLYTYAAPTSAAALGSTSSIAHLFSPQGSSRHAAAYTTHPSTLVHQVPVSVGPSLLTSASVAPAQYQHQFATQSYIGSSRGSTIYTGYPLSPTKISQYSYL
Summary of the method: as §1

Hck_h = target: T8, Hck_h (Homo sapiens, UniProt P08631); settings: KM ATP, read-out: % control
T8 construct: purchased Life Technologies (Invitrogen) SelectScreen, Z'-LYTE / Adapta
Summary of the method: as §1

IKBKE_h = target: T9, IKBKE_h (Homo sapiens, UniProt Q14164); settings: KM ATP, read-out: % control
T9 construct: purchased Life Technologies (Invitrogen) SelectScreen, Z'-LYTE / Adapta
T9 sequence (Q14164 whole entry): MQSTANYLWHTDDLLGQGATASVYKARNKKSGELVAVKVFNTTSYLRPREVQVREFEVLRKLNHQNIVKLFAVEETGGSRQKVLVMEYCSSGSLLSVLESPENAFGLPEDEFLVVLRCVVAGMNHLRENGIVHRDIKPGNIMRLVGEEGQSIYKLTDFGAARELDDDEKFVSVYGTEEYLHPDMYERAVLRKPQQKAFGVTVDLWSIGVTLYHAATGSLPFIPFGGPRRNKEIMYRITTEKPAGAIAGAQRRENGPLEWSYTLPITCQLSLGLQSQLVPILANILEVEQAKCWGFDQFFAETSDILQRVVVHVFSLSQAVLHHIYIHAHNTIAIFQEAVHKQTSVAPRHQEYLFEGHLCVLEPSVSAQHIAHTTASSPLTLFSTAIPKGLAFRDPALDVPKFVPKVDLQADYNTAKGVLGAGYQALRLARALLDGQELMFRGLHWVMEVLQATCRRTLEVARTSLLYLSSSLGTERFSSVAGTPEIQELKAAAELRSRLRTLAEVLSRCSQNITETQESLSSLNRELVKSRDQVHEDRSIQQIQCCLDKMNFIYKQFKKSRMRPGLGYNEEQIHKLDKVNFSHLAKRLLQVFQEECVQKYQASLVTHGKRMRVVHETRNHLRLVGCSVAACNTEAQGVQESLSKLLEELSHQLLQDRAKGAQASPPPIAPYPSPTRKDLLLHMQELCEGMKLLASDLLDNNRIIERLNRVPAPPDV
Summary of the method: as §1

JNK3_h = target: T10, JNK3_h (Homo sapiens, UniProt P53779); settings: 100 µM ATP, read-out: % control
T10 construct: purchased Life Technologies (Invitrogen) SelectScreen, Z'-LYTE / Adapta
Summary of the method: as §1

MARK3_h = target: T11, MARK3_h (Homo sapiens, UniProt P27448); settings: KM ATP, read-out: % control
T11 construct: purchased Life Technologies (Invitrogen) SelectScreen, Z'-LYTE / Adapta
Summary of the method: as §1

Met_M1250T_h = target: T12, Met_M1250T_h (Homo sapiens, UniProt P08581, M1250T); settings: KM ATP, read-out: % control
T12 construct: purchased Life Technologies (Invitrogen) SelectScreen, Z'-LYTE / Adapta
Summary of the method: as §1

NEK2_h = target: T13, NEK2_h (Homo sapiens, UniProt P51955); settings: KM ATP, read-out: % control
T13 construct: purchased Life Technologies (Invitrogen) SelectScreen, Z'-LYTE / Adapta
Summary of the method: as §1

PAK7_h = target: T14, PAK7_h (Homo sapiens, UniProt Q9P286); settings: KM ATP, read-out: % control
T14 construct: purchased Life Technologies (Invitrogen) SelectScreen, Z'-LYTE / Adapta
T14 sequence (Q9P286 whole entry): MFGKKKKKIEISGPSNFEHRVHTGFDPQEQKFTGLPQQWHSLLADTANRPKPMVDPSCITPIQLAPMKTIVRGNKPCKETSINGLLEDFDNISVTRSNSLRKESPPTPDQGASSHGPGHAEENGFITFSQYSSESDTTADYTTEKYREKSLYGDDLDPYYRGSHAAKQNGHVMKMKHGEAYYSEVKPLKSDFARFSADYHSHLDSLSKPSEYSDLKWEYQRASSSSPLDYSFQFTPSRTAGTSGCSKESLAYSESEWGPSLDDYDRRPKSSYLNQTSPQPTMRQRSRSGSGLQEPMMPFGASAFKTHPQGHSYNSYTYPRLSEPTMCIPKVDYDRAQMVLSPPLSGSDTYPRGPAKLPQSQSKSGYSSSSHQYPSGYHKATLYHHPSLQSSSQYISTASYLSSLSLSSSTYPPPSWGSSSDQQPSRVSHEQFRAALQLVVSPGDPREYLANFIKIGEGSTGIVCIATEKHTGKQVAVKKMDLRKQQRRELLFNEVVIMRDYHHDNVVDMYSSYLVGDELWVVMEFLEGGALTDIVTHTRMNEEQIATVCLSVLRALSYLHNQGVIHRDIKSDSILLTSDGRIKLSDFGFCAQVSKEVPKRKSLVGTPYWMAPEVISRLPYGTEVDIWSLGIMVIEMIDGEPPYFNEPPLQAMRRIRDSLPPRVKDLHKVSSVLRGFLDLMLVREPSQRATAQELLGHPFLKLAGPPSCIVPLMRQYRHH
Summary of the method: as §1

PDGFR-beta_h = target: T15, PDGFR-beta_h (Homo sapiens, UniProt P09619); settings: KM ATP, read-out: % control
T15 construct: purchased Life Technologies (Invitrogen) SelectScreen, Z'-LYTE / Adapta
Summary of the method: as §1

PKC-epsilon_h = target: T16, PKC-epsilon_h (Homo sapiens, UniProt Q02156); settings: KM ATP, read-out: % control
T16 construct: purchased Life Technologies (Invitrogen) SelectScreen, Z'-LYTE / Adapta
Summary of the method: as §1

PKC-theta_h = target: T17, PKC-theta_h (Homo sapiens, UniProt Q04759); settings: KM ATP, read-out: % control
T17 construct: purchased Life Technologies (Invitrogen) SelectScreen, Z'-LYTE / Adapta
T17 sequence (Q04759 whole entry): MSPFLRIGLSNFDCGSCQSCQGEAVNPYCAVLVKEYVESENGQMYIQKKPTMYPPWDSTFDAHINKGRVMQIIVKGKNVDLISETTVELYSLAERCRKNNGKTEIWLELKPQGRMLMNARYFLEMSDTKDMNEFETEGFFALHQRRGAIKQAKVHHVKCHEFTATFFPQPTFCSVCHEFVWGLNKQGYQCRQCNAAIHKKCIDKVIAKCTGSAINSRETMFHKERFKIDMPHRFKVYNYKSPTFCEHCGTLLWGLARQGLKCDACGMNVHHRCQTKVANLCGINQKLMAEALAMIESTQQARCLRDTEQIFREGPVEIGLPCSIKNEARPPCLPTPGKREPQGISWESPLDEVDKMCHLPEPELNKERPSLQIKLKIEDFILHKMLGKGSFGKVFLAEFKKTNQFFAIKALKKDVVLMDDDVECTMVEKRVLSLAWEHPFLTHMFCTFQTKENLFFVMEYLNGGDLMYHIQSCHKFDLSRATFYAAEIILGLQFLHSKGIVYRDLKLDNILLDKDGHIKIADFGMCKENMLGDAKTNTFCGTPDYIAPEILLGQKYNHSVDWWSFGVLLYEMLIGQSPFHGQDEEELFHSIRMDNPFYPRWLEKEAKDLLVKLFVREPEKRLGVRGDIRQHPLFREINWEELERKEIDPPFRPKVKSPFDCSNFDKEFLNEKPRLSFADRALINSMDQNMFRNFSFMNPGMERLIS
Summary of the method: as §1

PKD3_h = target: T18, PKD3_h (Homo sapiens, UniProt O94806); settings: KM ATP, read-out: % control
T18 construct: purchased Life Technologies (Invitrogen) SelectScreen, Z'-LYTE / Adapta
Summary of the method: as §1

PRKG2_h = target: T19, PRKG2_h (Homo sapiens, UniProt Q13237); settings: KM ATP, read-out: % control
T19 construct: purchased Life Technologies (Invitrogen) SelectScreen, Z'-LYTE / Adapta
Summary of the method: as §1

PhK-gamma2_h = target: T20, PhK-gamma2_h (Homo sapiens, UniProt P15735); settings: KM ATP, read-out: % control
T20 construct: purchased Life Technologies (Invitrogen) SelectScreen, Z'-LYTE / Adapta
Summary of the method: as §1

Pim-2_h = target: T21, Pim-2_h (Homo sapiens, UniProt Q9P1W9); settings: KM ATP, read-out: % control
T21 construct: purchased Life Technologies (Invitrogen) SelectScreen, Z'-LYTE / Adapta
Summary of the method: as §1

Plk3_h = target: T22, Plk3_h (Homo sapiens, UniProt Q9H4B4); settings: KM ATP, read-out: % control
T22 construct: purchased Life Technologies (Invitrogen) SelectScreen, Z'-LYTE / Adapta
Summary of the method: as §1

Rse_h = target: T23, Rse_h (Homo sapiens, UniProt Q06418); settings: KM ATP, read-out: % control
T23 construct: purchased Life Technologies (Invitrogen) SelectScreen, Z'-LYTE / Adapta
Summary of the method: as §1

SIK2_h = target: T24, SIK2_h (Homo sapiens, UniProt Q9H0K1); settings: KM ATP, read-out: % control
T24 construct: purchased Life Technologies (Invitrogen) SelectScreen, Z'-LYTE / Adapta
T24 sequence (Q9H0K1 whole entry): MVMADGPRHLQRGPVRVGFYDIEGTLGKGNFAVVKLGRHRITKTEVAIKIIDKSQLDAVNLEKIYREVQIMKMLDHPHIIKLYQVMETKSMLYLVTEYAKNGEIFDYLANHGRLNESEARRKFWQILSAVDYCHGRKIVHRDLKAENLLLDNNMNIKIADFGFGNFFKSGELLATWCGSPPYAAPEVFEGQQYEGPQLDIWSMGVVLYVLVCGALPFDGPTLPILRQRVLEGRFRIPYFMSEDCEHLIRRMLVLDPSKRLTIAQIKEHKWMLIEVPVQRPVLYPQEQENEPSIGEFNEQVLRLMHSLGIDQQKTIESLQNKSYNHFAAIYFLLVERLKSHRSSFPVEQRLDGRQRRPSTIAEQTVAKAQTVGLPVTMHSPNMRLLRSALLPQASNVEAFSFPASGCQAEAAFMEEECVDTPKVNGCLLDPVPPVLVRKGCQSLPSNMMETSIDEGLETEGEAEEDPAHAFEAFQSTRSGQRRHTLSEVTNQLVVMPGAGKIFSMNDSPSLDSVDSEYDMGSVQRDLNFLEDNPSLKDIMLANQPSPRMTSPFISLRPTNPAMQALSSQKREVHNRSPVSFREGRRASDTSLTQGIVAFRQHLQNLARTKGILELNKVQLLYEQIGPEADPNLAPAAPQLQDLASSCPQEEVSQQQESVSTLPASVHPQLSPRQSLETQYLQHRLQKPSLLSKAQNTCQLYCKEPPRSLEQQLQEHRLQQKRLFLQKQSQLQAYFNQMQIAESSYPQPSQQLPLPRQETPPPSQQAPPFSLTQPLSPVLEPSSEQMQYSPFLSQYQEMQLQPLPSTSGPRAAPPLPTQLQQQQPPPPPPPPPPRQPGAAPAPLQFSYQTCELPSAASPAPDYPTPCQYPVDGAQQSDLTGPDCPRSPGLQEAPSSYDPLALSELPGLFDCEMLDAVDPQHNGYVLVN
Summary of the method: as §1

Syk_h = Syk_h (Homo sapiens, UniProt P43405)
Summary of the method: as §1

TBK1_h = target: T25, TBK1_h (Homo sapiens, UniProt Q9UHD2); settings: KM ATP, read-out: % control
T25 construct: purchased Life Technologies (Invitrogen) SelectScreen, Z'-LYTE / Adapta
Summary of the method: as §1

mTOR_h = target: T26, mTOR_h (Homo sapiens, UniProt P42345); settings: KM ATP, read-out: % control
T26 construct: purchased Life Technologies (Invitrogen) SelectScreen, Z'-LYTE / Adapta
Summary of the method: as §1

p38-alpha_h = target: T27, p38-alpha_h (Homo sapiens, UniProt Q16539); settings: 100 µM ATP, read-out: % control
T27 construct: purchased Life Technologies (Invitrogen) SelectScreen, Z'-LYTE / Adapta
T27 sequence (Q16539 whole entry): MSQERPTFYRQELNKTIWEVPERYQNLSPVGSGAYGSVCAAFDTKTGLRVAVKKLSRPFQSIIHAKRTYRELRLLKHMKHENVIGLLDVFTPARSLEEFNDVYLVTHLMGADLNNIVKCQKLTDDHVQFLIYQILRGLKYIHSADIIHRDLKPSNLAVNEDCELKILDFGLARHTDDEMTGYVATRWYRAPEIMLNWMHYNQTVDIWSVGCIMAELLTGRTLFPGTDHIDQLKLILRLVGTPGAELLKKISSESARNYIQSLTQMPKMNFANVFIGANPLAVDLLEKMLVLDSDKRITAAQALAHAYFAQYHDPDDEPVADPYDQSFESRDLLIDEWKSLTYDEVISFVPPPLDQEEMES
Summary of the method: as §1

SMILES: c1cc(CC2CCOCC2)n2nc(Nc3ccc4c(NC5CCOCC5)n[nH]c4c3)nc2c1 [CC-509, [3-(2H-3,4,5,6-tetrahydropyran-4-ylamino)(1H-indazol-6-yl)][5-(2H-3,4,5,6-tetrahydropyran-4-ylmethyl)(2H-1,2,4-triazolo[1,5-a]pyridin-2-yl)]amine]
- remaining activity at 3 µM (Axl_h): 70%
- remaining activity at 3 µM (BTK_h): 72%
- remaining activity at 3 µM (CK1-delta_h): 88%
- remaining activity at 3 µM (CaMKI-delta_h): 86%
- remaining activity at 3 µM (CaMKIV_h): 100%
- remaining activity at 3 µM (DYR1A_h): 99%
- remaining activity at 3 µM (HIPK1_h): 94%
- remaining activity at 3 µM (Hck_h): 71%
- remaining activity at 3 µM (IKBKE_h): 67%
- remaining activity at 3 µM (JNK3_h): 94%
- remaining activity at 3 µM (MARK3_h): 42%
- remaining activity at 3 µM (Met_M1250T_h): 74%
- remaining activity at 3 µM (NEK2_h): 101%
- remaining activity at 3 µM (PAK7_h): 86%
- remaining activity at 3 µM (PDGFR-beta_h): 43%
- remaining activity at 3 µM (PKC-epsilon_h): 100%
- remaining activity at 3 µM (PKC-theta_h): 78%
- remaining activity at 3 µM (PKD3_h): 37%
- remaining activity at 3 µM (PRKG2_h): 93%
- remaining activity at 3 µM (PhK-gamma2_h): 103%
- remaining activity at 3 µM (Pim-2_h): 99%
- remaining activity at 3 µM (Plk3_h): 88%
- remaining activity at 3 µM (Rse_h): 53%
- remaining activity at 3 µM (SIK2_h): 6%
- remaining activity at 3 µM (Syk_h; 3 µM, KM ATP, read-out: % control): -2%
- IC50 (Syk_h; 10-point dose-response, commercial vendor): 27.3 nM
- remaining activity at 3 µM (TBK1_h): 10%
- remaining activity at 3 µM (mTOR_h): 92%
- remaining activity at 3 µM (p38-alpha_h): 89%
